Assay results reported in patent US20240100013A1, “SOTAGLIFLOZIN FOR IMPROVING LEFT ATRIAL FUNCTION” (CHARITÉ-UNIVERSITÄTSMEDIZIN BERLIN, priority 2021, published 2024).

Key:
LA cardiomyocytes [1] = assay: Ca2+ transient (CaT) measurements (Fura-2) in LA cardiomyocytes, incl. glucose starvation/reintroduction and glycolytic inhibition; format: cell-based, rat
Excerpt: Cardiomyocyte isolation. LA and LV cardiomyocytes were isolated using enzymatic digestion as previously described in detail. See Bode D, Guthof T, Pieske B M, Heinzel F R, Hohendanner F: “Isolation of Atrial Cardiomyocytes from a Rat Model of Metabolic Syndrome-related Heart Failure with Preserved Ejection Fraction,” J Vis Exp 2018(137).
Solutions and chemicals. Chemicals were obtained from Sigma-Aldrich (St. Louis, MO, USA) unless noted otherwise. The dual SGLT1/2 inhibitor sotagliflozin was provided by Lexicon Pharmaceuticals (The Woodlands, TX, USA). Fluorescent dyes Fura-2 AM, Rhod-2 AM, MitoTracker red, MitoTracker green, TMRE and H2-DCF were obtained from Thermo Fisher Scientific (Waltham, MA, USA). Tyrode solution contained (in mM): 130 NaCL, 4 KCl, 2 CaCl, 1 MgCl2, 10 Glucose, 10 HEPES; pH adjusted to 7.4 with NaOH. LA cardiomyocytes were plated on laminin-coated glass coverslips. 20 mM caffeine was added to Tyrode solution to induce sarcoplasmic reticulum (SR) Ca^2+ release and obtain a measure of SR Ca^2+ content. […] For glucose starvation (FIGS. 2H-J, 5A-D), glucose of Tyrode solution was replaced with 30 mM mannitol. For sub-sequent glucose reintroduction, mannitol was replaced with 30 mM glucose (“high glucose condition”).
(§1) Ca^2+ measurements and sarcomere shortening. Radiometric Ca^2+ measurements (excitation: 340 nm and 385 nm, emission: 510±10 nm; [Ca^2+] expressed as the ratio R=F340/F380) were performed either with a CytoCypher MultiCell System (CytoCypher BV, Netherlands; FIGS. 1C-F, 2D-G, 4A-F) or an Axiovert 200 microscope (Zeiss, Oberkochen, Germany) fluorescence imaging assembly (FIGS. 2A-C, 2H-J, 3A-E, 6E-I). LA cardiomyocytes were loaded with Fura-2 for 30 min at room temperature, washed twice with Tyrode solution and transferred to the microscope. Experiments were conducted at 37° C. and CaT were recorded at steady state (following electric stimulation).
(§2) CaT and sarcomere shortening of LA and LV cardiomyocytes were recorded for 10 s at 3 Hz stimulation. See FIGS. 2D-G, 4A-F. Electric stimulation was turned off and spontaneous SR Ca^2+ release events (See Voigt N, Heijman J, Wang Q, Chiang D Y, Li N, Karck M, Wehrens X H T, Nattel S, Dobrev D: “Cellular and molecular mechanisms of atrial arrhythmogenesis in patients with paroxysmal atrial fibrillation,” Circulation 2014, 129(2):145-156) (SCaEs) immediately recorded for a duration of 10 s (FIG. 1C-F). In a sub-set of LA cells, CaT were recorded for 10 s at 1 Hz stimulation. Electric stimulation was turned off, the cells immediately exposed to 20 mM caffeine and the sub-sequent caffeine-induced CaT recorded for 10 s (FIG. 2A-C, 3A-E). Sodium-calcium exchanger (NCX) activity was calculated as previously described. See Hohendanner F, Walther S, Maxwell J T, Kettlewell S, Awad S, Smith G L, Lonchyna V A, Blatter L A: “Inositol-1,4,5-trisphosphate induced Ca^2+ release and excitation-contraction coupling in atrial myocytes from normal and failing hearts,” J Physiol 2015, 593(6):1459-1477.
Cells were treated with 2-deoxyglucose to inhibit glycolysis for a duration of 3 min, while maintaining steady stimulation at 1 Hz and CaT were recorded for another 10 s. A sub-set of cells was starved of glucose for 1 h at 37° C. CaT were recorded for 10 s at 1 Hz stimulation. See FIGS. 2H-J. Cells were exposed to glucose and constant electric pacing at 1 Hz was maintained. After 1 min, CaT transients were recorded for 10 s at 1 Hz stimulation.

LA cardiomyocytes [2] = assay: Caffeine-induced CaT: SR Ca2+ load, tau of decay and NCX forward-mode activity; format: cell-based, rat
Excerpt: Solutions and chemicals. Chemicals were obtained from Sigma-Aldrich (St. Louis, MO, USA) unless noted otherwise. The dual SGLT1/2 inhibitor sotagliflozin was provided by Lexicon Pharmaceuticals (The Woodlands, TX, USA). Fluorescent dyes Fura-2 AM, Rhod-2 AM, MitoTracker red, MitoTracker green, TMRE and H2-DCF were obtained from Thermo Fisher Scientific (Waltham, MA, USA). Tyrode solution contained (in mM): 130 NaCL, 4 KCl, 2 CaCl, 1 MgCl2, 10 Glucose, 10 HEPES; pH adjusted to 7.4 with NaOH. LA cardiomyocytes were plated on laminin-coated glass coverslips. 20 mM caffeine was added to Tyrode solution to induce sarcoplasmic reticulum (SR) Ca^2+ release and obtain a measure of SR Ca^2+ content. For baseline recordings of Ca^2+ transient (CaT), sarcomere shortening and arrhythmic events (FIGS. 1C-F, 2A-E, 3A-F), Tyrode solution containing 3 mM Ca^2+ was used. For glucose starvation (FIGS. 2H-J, 5A-D), glucose of Tyrode solution was replaced with 30 mM mannitol. For sub-sequent glucose reintroduction, mannitol was replaced with 30 mM glucose (“high glucose condition”).
as §1, §2

LA cardiomyocytes [3] = assay: Mitochondrial depolarization (TMRE) in LA cardiomyocytes; format: cell-based, rat; settings: differences between groups
Method: Mitochondrial depolarization. LA cardiomyocytes were loaded with TMRE and MitoTracker green, transferred to an LSM 800 laser scanning microscope and kept in Tyrode's solution containing 2 mM Ca^2+ and 10 nM TMRE. Two-dimensional images of TMRE (excitation: 561 nm, emission: 565-585 nm) and MitoTracker green fluorescence (excitation: 488 nm, emission: 505-525 nm) were acquired for a duration of 6 min (interval: 2 s, resolution: 512×512 px, pixel size: 1.25 μm, pixel time: 1.03 μs, laser intensity: 4%). A binary mask of both channels was derived using a Bernsen thresholding algorithm (ImageJ). Positive pixels of the MitoTracker green image were defined as mitochondria and a positive overlay of the TMRE image assumed to indicate a polarized state. The standard deviation of polarized mitochondria over time was taken as a measure of spatiotemporal oscillation.

[4] = setting of diabetes; cited from earlier work
[5] = HFpEF, 2-deoxyglucose, 3 min, 1 Hz
[6] = HFpEF, 3 Hz, 5 mM extracellular [Ca2+]
[7] = baseline, 1 Hz, 2 mM Ca2+, chronic treatment

## CCOc1ccc(Cc2cc([C@@H]3O[C@H](SC)[C@@H](O)[C@H](O)[C@H]3O)ccc2Cl)cc1 [sotagliflozin, (2S,3R,4R,5S,6R)-2-(4-chloro-3-(4-ethoxybenzyl)phenyl)-6-(methylthio)tetrahydro-2H-pyran-3,4,5-triol]
LA cardiomyocytes [1]; [5]
  increased CaT amplitude gain upon glycolytic inhibition: prevented
  increased influx of diastolic Ca2+ upon glycolytic inhibition: prevented
LA cardiomyocytes [1]; [6]
  CaT amplitudes: unchanged
  diastolic [Ca2+]: significant reduction
LA cardiomyocytes [1]; HFpEF, 1 h glucose starvation, then 30 mM glucose
  glucose-mediated influx of diastolic Ca2+: prevented
LA cardiomyocytes [1]; [7]
  CaT amplitude: did not alter
  diastolic [Ca2+]: did not alter
LA cardiomyocytes [2]; HFpEF, 20 mM caffeine
  SR Ca2+ load: no effect
  tau of caffeine-induced CaT: unchanged
LA cardiomyocytes [2]; HFpEF, 1 Hz electric stimulation
  tau of decay (paced CaT): significantly prolonged
LA cardiomyocytes [2]; HFpEF, Sota vs vehicle
  increase of contribution of NCX forward-mode activity on cytosolic Ca2+ removal: −50%
LA cardiomyocytes [2]; HFpEF, vehicle 7.6±0.7, n=14 and 21 cells
  contribution of NCX forward-mode activity on cytosolic Ca2+ removal: 11.6±0.7%
LA cardiomyocytes [2]; after chronic treatment, HFpEF vs WT
  increased forward mode NCX activity: only occurs in HFpEF, but not WT
LA cardiomyocytes [3]
  incidence and spatial distribution of mitochondrial depolarizations: could not be detected
[4]
  effects on blood pressure and body weight: beneficial effects
